Like-named read-outs stand apart in the source and are kept apart here.
Columns and labels:
[1] = system: F-3; assay type: biochemical, NK-1148 strain
Method: (§1) The results of measuring enzyme activities of the enzymes of this invention (F-1, F-2 and F-3) after adding each of various substances are as follows.
(§2) 20 μl of the enzyme of this invention is made to react with a reaction solution consisting of 10 μl of a 10 mM syringylglycerol-β-syringylether solution which contains a small amount of dioxane and 720 μl of a 50 mM acetate buffer solution (pH 5.0) and increases of absorbance at 300 nm are measured.
(§3) Enzyme activity producing a 0.01 increase of absorbance during one minute is supposed to be one unit.

[2] = system: F-2; assay type: biochemical, NK-1148 strain
Method: as §1, §2, §3

[3] = system: F-1; assay type: biochemical, NK-1148 strain
Method: as §1, §2, §3

[4] = system: NK-1148 strain (FERM BP-1859); test: Effect of lignin-related substances on the enzyme production; assay type: cell-based; conditions: 0.2% of substance added after 7 days culture, further cultured at 28° C. for one day
Method: as §2, §3
After 100 ml of a medium of the same composition as that used in Example 3 was placed in a 500 ml Erlenmeyer flask and sterilized at 120° C. for 15 minutes, NK-1148 strain (FERM BP-1859) was inoculated into the medium and cultured at 28° C. for 7 days.

[5] = substance added at 1 mM, no addition = 100%
[6] = substance added at 0.5 mM, no addition = 100%

Structure (SMILES)	Relative Activity F-3 [1, 5]	Relative Activity F-2 [2, 5]	Relative Activity F-1 [3, 5]	also measured
OCCS [2-Mercapto-ethanol]	15%	19%	10%	
N[C@@H](CS)C(=O)O [Cysteine]	13%	21%	11%	
[Cl-].[Cl-].[Mg+2] [MgCl2]	95%	94%	94%	
[Cl][Al]([Cl])[Cl] [AlCl3]	65%	65%	61%	
[Ba+2].[Cl-].[Cl-] [BaCl2]	95%	95%	93%	
OCc1ccccc1 [Benzyl alcohol, benzyl alcohol]				Enzymatic activity [4]: 0.01 Unit/ml
[Cl][Fe]([Cl])[Cl] [FeCl3]				Relative Activity F-3 [1, 6]: 25%; Relative Activity F-2 [2, 6]: 31%; Relative Activity F-1 [3, 6]: 15%
[Cl][Hg][Cl] [HgCl2]	18%	21%	11%	
COc1cc(C(O)C(CO)Oc2c(OC)cccc2OC)cc(OC)c1O (stereo not drawn) [Syringylglycerol-β-syringylether, syringylglycerol-β-syringylether]				Enzymatic activity [4]: 3.9 Unit/ml
[Cl][Cu][Cl] [CuCl2]	100%	92%	102%	
[Cl][Mn][Cl] [MnCl2]	95%	95%	95%	
[Cl-].[Cl-].[Zn+2] [ZnCl3]	94%	93%	94%	
COc1cc(CO)ccc1O [Vanillyl alcohol, vanillyl alcohol]				Enzymatic activity [4]: 3.95 Unit/ml
COc1cc(CO)cc(OC)c1O [Syringyl alcohol, syringyl alcohol]				Enzymatic activity [4]: 4.0 Unit/ml
CCCCCCCCCCCCOS(=O)(=O)[O-].[Na+] [SDS, sodium dodecyl sulfate]	103%	101%	106%	
COc1ccc(CO)cc1OC [Veratryl alcohol, veratryl alcohol]				Enzymatic activity [4]: 0.05 Unit/ml
O=C(O)CN(CCN(CC(=O)O)CC(=O)O)CC(=O)O [EDTA]				Relative Activity F-3 ([1]; pH 5, 1000 µM): 101; Relative Activity F-2 ([2]; pH 5, 1000 µM): 102; Relative Activity F-1 ([3]; pH 5, 1000 µM): 98
[Cl-].[Cl-].[Co+2] [CoCl2]	96%	94%	97%	
[N-]=[N+]=[N-].[Na+] [NaN3]	20%	23%	14%	
[Ca+2].[Cl-].[Cl-] [CaCl2]	95%	95%	94%	
